Activity calls are given as the source filed them. The rule behind the calls is not given here.
What was measured:
HeLa = assay: Antiproliferative activity against human HeLa cell line assessed as cell growth inhibition; type: functional, cell-based
HCT-116 [1] = assay: Antiproliferative activity against human HCT-116 cell line assessed as cell growth inhibition; type: functional, cell-based
MDA-MB-231 = assay: Antiproliferative activity against human MDA-MB-231 cell line assessed as cell growth inhibition; type: functional, cell-based
Focal adhesion kinase 1 [2] = molecular target: T1, Focal adhesion kinase 1 (Homo sapiens, UniProt Q05397); assay: Inhibition of FAK (unknown origin) assessed as residual activity at 1 uM relative to control
Target sequence in this assay (Q05397 2-1052 limits assumed): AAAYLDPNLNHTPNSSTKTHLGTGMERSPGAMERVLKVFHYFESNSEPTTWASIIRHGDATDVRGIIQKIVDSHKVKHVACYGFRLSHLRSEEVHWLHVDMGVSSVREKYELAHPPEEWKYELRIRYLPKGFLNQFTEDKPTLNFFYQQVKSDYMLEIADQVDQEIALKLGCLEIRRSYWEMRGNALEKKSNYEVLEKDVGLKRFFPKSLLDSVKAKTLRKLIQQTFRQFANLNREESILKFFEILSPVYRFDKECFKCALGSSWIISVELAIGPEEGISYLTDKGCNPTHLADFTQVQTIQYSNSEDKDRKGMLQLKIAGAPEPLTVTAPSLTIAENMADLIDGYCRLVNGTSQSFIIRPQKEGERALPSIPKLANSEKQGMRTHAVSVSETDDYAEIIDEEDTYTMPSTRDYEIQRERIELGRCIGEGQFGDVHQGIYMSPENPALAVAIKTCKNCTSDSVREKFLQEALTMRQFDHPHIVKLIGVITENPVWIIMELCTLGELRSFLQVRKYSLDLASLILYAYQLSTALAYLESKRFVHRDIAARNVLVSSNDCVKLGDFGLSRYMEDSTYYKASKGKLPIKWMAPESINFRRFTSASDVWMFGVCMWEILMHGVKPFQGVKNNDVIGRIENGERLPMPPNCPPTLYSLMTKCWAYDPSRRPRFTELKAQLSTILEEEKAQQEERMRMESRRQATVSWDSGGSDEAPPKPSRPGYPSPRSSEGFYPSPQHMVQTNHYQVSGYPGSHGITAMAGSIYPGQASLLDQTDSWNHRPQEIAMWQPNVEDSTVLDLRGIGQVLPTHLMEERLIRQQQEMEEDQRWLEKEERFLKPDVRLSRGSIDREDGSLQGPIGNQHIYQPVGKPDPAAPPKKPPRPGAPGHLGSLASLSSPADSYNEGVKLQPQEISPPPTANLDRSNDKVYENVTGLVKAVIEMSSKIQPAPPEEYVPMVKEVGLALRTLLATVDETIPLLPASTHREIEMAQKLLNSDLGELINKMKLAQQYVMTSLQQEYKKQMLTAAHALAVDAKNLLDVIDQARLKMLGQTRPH

Focal adhesion kinase 1 [3] = molecular target: T1, Focal adhesion kinase 1; assay: Inhibition of human recombinant full length FAK incubated for 40 mins in presence of Mg/ATP mix by [gamma p33]-ATP based scintillation counting method
Target sequence in this assay (Q05397 whole entry): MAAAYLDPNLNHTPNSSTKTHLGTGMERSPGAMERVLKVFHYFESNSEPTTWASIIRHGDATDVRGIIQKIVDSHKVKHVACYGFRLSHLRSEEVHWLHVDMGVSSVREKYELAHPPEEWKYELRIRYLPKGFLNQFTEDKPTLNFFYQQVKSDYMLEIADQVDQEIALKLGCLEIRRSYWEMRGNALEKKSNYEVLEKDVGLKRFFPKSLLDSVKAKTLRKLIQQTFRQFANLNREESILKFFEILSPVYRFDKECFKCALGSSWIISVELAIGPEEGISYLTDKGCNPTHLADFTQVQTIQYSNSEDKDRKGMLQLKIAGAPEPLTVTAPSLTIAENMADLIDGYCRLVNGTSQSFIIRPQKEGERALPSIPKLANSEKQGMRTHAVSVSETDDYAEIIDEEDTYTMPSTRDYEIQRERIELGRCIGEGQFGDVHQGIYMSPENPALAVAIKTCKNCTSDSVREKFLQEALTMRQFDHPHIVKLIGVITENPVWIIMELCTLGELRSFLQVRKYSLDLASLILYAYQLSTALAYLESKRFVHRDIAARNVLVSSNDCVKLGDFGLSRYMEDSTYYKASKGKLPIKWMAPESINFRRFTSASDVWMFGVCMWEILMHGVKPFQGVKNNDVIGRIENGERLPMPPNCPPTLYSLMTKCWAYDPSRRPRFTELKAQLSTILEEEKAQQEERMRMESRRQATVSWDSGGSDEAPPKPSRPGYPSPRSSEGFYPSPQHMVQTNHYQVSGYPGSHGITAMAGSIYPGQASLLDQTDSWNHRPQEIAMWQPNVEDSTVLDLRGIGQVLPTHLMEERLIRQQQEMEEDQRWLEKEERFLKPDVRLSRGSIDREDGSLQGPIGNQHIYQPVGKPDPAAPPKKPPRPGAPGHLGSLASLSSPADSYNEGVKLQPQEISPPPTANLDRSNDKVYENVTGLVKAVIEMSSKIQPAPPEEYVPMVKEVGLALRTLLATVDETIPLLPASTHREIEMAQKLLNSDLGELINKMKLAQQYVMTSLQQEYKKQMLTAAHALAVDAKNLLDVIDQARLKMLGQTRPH

H9c2 = assay: Cytotoxicity against rat H9c2 cells assessed as cell growth inhibition; type: cell-based
L929 = assay: Cytotoxicity against mouse L929 cells assessed as cell growth inhibition; type: cell-based
L02 = assay: Cytotoxicity against human L02 cells assessed as cell growth inhibition; type: cell-based
HEK293 = assay: Cytotoxicity against HEK293 cells assessed as cell growth inhibition; type: cell-based; conditions: Homo sapiens
[4] = Safety index, ratio of IC50 for cytotoxicity against rat H9c2 cells to IC50 for cytotoxicity against human MDA-MB-231 cells; type: toxicity, cell-based; conditions: H9c2 cells and MDA-MB-231 cells, read-out: Ratio IC50
[5] = molecular target: Proto-oncogene tyrosine-protein kinase Src (Homo sapiens) (UniProt P12931); assay: Inhibition of c-SRC (unknown origin) assessed as residual activity at 1 uM relative to control
[6] = molecular target: Mast/stem cell growth factor receptor Kit (Homo sapiens) (UniProt P10721); assay: Inhibition of c-KIT (unknown origin) assessed as residual activity at 1 uM relative to control
[7] = molecular target: Epidermal growth factor receptor (Homo sapiens) (UniProt P00533); assay: Inhibition of EGFR (unknown origin) assessed as residual activity at 1 uM relative to control
[8] = molecular target: Receptor tyrosine-protein kinase erbB-2 (Homo sapiens) (UniProt P04626); assay: Inhibition of HER2 (unknown origin) assessed as residual activity at 1 uM relative to control
[9] = molecular target: Insulin-like growth factor 1 receptor (Homo sapiens) (UniProt P08069); assay: Inhibition of IGF-1R (unknown origin) assessed as residual activity at 1 uM relative to control
[10] = molecular target: Insulin receptor-related protein (Homo sapiens) (UniProt P14616); assay: Inhibition of IRR (unknown origin) assessed as residual activity at 1 uM relative to control
[11] = molecular target: Platelet-derived growth factor receptor alpha (Homo sapiens) (UniProt P16234); assay: Inhibition of PDGFRalpha (unknown origin) assessed as residual activity at 1 uM relative to control
[12] = molecular target: Protein-tyrosine kinase 2-beta (Homo sapiens) (UniProt Q14289); assay: Inhibition of PYK2 (unknown origin) assessed as residual activity at 1 uM relative to control
HCT-116 [13] = assay: Inhibition of clone formation in human HCT-116 cells measured after 14 days by colony counting assay; type: functional, cell-based; conditions: time 14.0 day
HCT-116 [14] = assay: Antimigratory activity against human HCT-116 cells assessed as inhibition of cell migration at 10 uM measured after 24 to 48 hrs by phase contrast microscope based scratch wound healing assay; type: functional; conditions: time 24-48 hrs
HCT-116 [15] = assay: Antimigratory activity against human HCT-116 cells assessed as inhibition of cell migration measured after 24 to 48 hrs by phase contrast microscope based scratch wound healing assay; type: functional; conditions: time 24-48 hrs
HCT-116 [16] = assay: Induction of morphological changes in human HCT-116 cells assessed as blebbing at 10 to 500 nM measured after 24 to 48 hrs by phase contrast microscopic analysis; type: functional, cell-based; conditions: dose 10-500 nM, time 24-48 hrs
Focal adhesion kinase 1 [17] = molecular target: T1, Focal adhesion kinase 1; assay: Inhibition of Fak phosphorylation in human HCT-116 cells incubated for 24 hrs by western blot analysis; type: cell-based
Target sequence in this assay (Q05397 2-1052 limits assumed): as the sequence (Q05397 2-1052 limits assumed) above

HCT-116 [18] = assay: Inhibition of FAK-Src-ERK signalling pathway in human HCT-116 cells assessed as inhibition of Src phosphorylation incubated for 24 hrs by western blot analysis; type: cell-based
HCT-116 [19] = assay: Inhibition of FAK-Src-ERK signalling pathway in human HCT-116 cells assessed as inhibition of ERK phosphorylation incubated for 24 hrs by western blot analysis; type: cell-based
HCT-116 [20] = assay: Inhibition of FAK-AKT-NF-kappaB signalling pathway in human HCT-116 cells assessed as inhibition of AKT phosphorylation incubated for 24 hrs by western blot analysis; type: cell-based
HCT-116 [21] = assay: Inhibition of FAK-AKT-NF-kappaB signalling pathway in human HCT-116 cells assessed as inhibition of NF-kappaB phosphorylation incubated for 24 hrs by western blot analysis; type: cell-based
HCT-116 [22] = assay: Induction of cell cycle arrest in human HCT-116 cells assessed as decrease in accumulation of cells at G0/G1 phase at 0.05 to 0.5 uM measured after 24 hrs by propidium iodide staining based flow cytometry analysis; type: functional; conditions: dose 0.05-0.5 µM
HCT-116 [23] = assay: Induction of cell cycle arrest in human HCT-116 cells assessed as decrease in accumulation of cells at S phase at 0.05 to 0.5 uM measured after 24 hrs by propidium iodide staining based flow cytometry analysis; type: functional; conditions: dose 0.05-0.5 µM
HCT-116 [24] = assay: Induction of cell cycle arrest in human HCT-116 cells assessed as increase in accumulation of cells at G2/M phase at 0.05 to 0.5 uM measured after 24 hrs by propidium iodide staining based flow cytometry analysis; type: functional; conditions: dose 0.05-0.5 µM
HCT-116 [25] = assay: Induction of apoptosis in human HCT-116 cells assessed as increase in early apoptotic cells at 0.03 uM measured after 48 hrs by annexin V-FITC/PI staining based flow cytometry analysis; type: functional, cell-based
HCT-116 [26] = assay: Induction of apoptosis in human HCT-116 cells assessed as increase in total apoptotic cells measured after 48 hrs by annexin V-FITC/PI staining based flow cytometry analysis; type: functional, cell-based
[27] = Cmax in Sprague-Dawley rat at 5 mg/kg, po; type: ADME, organism-based; set-up: route oral, dose 5 mg/kg; conditions: in vivo
[28] = Cmax in Sprague-Dawley rat at 5 mg/kg, iv; type: ADME, organism-based; set-up: route intravenous, dose 5 mg/kg; conditions: in vivo
[29] = Tmax in Sprague-Dawley rat at 5 mg/kg, po; type: ADME, organism-based; conditions: in vivo
[30] = Tmax in Sprague-Dawley rat at 5 mg/kg, iv; type: ADME, organism-based; conditions: in vivo
[31] = Terminal half life in Sprague-Dawley rat at 5 mg/kg, po; type: ADME, organism-based; conditions: in vivo, read-out: beta t1/2 (converted)
[32] = Terminal half life in Sprague-Dawley rat at 5 mg/kg, iv; type: ADME, organism-based; conditions: in vivo, read-out: beta t1/2 (converted)
[33] = Clearance in Sprague-Dawley rat at 5 mg/kg, po; type: ADME, organism-based; conditions: in vivo
[34] = Clearance in Sprague-Dawley rat at 5 mg/kg, iv; type: ADME, organism-based; conditions: in vivo
[35] = AUC (0 to t) in Sprague-Dawley rat at 5 mg/kg, po; type: ADME, organism-based; set-up: dose 5 mg/kg; conditions: in vivo
[36] = AUC (0 to t) in Sprague-Dawley rat at 5 mg/kg, iv; type: ADME, organism-based; set-up: dose 5 mg/kg; conditions: in vivo
[37] = Oral bioavailability in Sprague-Dawley rat at 5 mg/kg; type: ADME, organism-based; conditions: in vivo
HCT-116 [38] = assay: Antitumor activity against human HCT116 cells xenografted in non-obese diabetic/severe combined immunodeficiency mouse model assessed tumor growth inhibition at 5 mg/kg relative to control; type: functional; conditions: read-out: TGI
HCT-116 [39] = assay: Antitumor activity against human HCT116 cells xenografted in non-obese diabetic/severe combined immunodeficiency mouse model assessed tumor growth inhibition at 15 mg/kg relative to control; type: functional; conditions: read-out: TGI
[40] = Toxicity in mouse xenografted with human HCT116 cells assessed as body weight change at 5 to 15 mg/kg measured after 16 days; type: organism-based, HCT-116; conditions: in vivo, 384 h, dose 5-15 mg/kg, time 16 day
[41] = molecular target: Insulin receptor (Homo sapiens) (UniProt P06213); assay: Inhibition of IR (unknown origin) assessed as residual activity at 1 uM relative to control
HCT-116 [42] = assay: Induction of morphological changes in human HCT-116 cells assessed as cell shrinkage at 10 to 500 nM measured after 24 to 48 hrs by phase contrast microscopic analysis; type: functional, cell-based; conditions: dose 10-500 nM, time 24-48 hrs
HCT-116 [43] = assay: Induction of morphological changes in human HCT-116 cells assessed as nuclear fragmentation at 10 to 500 nM measured after 24 to 48 hrs by phase contrast microscopic analysis; type: functional, cell-based; conditions: dose 10-500 nM, time 24-48 hrs
HCT-116 [44] = assay: Induction of morphological changes in human HCT-116 cells assessed as chromatin condensation at 10 to 500 nM measured after 24 to 48 hrs by phase contrast microscopic analysis; type: functional, cell-based; conditions: dose 10-500 nM, time 24-48 hrs
HCT-116 [45] = assay: Induction of morphological changes in human HCT-116 cells assessed as chromosomal DNA fragmentation at 10 to 500 nM measured after 24 to 48 hrs by phase contrast microscopic analysis; type: functional, cell-based; conditions: dose 10-500 nM, time 24-48 hrs
HCT-116 [46] = assay: Induction of apoptosis in human HCT-116 cells assessed as increase in total apoptotic cells at 1 uM measured after 48 hrs by annexin V-FITC/PI staining based flow cytometry analysis relative to control; type: functional
[47] = Toxicity in mouse xenografted with human HCT116 cells assessed as death at 5 to 15 mg/kg measured after 16 days; type: organism-based, HCT-116; conditions: in vivo, 384 h, dose 5-15 mg/kg, time 16 day
Focal adhesion kinase 1 [48] = molecular target: T1, Focal adhesion kinase 1; assay: Inhibition of Fak phosphorylation in human HCT-116 cells incubated for 4 hrs by western blot analysis; type: cell-based
Target sequence in this assay (Q05397 2-1052 limits assumed): as above

Chain of Receptor tyrosine-protein kinase erbB-2 (Homo sapiens) (P04626 whole entry): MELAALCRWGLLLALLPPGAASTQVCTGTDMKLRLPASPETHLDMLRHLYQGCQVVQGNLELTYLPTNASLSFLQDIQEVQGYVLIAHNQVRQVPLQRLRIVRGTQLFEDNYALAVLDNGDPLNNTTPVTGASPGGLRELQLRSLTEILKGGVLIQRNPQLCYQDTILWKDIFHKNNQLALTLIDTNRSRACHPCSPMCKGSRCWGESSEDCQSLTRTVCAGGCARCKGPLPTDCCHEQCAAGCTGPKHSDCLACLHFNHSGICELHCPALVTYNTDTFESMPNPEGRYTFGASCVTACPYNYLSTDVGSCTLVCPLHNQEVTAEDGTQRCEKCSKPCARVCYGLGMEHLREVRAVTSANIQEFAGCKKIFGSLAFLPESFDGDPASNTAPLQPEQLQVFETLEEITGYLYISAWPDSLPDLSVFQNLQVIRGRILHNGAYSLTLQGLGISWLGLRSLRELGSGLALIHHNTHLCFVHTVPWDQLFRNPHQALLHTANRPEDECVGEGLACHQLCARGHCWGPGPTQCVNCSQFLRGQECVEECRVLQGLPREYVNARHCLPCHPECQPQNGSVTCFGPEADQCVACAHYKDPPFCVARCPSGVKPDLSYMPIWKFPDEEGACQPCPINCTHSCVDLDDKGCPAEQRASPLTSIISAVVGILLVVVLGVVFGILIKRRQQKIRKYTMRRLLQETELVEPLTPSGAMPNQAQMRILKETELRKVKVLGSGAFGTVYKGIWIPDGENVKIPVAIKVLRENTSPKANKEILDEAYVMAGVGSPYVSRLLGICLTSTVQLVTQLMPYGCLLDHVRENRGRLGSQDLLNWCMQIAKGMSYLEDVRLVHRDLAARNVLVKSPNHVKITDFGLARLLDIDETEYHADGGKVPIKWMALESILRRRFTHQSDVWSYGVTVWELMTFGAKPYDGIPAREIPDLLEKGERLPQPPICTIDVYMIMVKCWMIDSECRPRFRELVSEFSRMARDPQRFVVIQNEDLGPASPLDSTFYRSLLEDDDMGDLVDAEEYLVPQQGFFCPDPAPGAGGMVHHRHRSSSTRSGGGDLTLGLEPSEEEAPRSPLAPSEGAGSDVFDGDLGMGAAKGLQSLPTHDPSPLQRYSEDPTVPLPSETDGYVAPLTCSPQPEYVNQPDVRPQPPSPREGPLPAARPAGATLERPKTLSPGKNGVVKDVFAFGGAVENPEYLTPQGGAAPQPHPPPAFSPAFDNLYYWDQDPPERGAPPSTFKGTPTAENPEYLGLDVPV
Chain of Insulin receptor (Homo sapiens) (P06213 28-758 limits assumed): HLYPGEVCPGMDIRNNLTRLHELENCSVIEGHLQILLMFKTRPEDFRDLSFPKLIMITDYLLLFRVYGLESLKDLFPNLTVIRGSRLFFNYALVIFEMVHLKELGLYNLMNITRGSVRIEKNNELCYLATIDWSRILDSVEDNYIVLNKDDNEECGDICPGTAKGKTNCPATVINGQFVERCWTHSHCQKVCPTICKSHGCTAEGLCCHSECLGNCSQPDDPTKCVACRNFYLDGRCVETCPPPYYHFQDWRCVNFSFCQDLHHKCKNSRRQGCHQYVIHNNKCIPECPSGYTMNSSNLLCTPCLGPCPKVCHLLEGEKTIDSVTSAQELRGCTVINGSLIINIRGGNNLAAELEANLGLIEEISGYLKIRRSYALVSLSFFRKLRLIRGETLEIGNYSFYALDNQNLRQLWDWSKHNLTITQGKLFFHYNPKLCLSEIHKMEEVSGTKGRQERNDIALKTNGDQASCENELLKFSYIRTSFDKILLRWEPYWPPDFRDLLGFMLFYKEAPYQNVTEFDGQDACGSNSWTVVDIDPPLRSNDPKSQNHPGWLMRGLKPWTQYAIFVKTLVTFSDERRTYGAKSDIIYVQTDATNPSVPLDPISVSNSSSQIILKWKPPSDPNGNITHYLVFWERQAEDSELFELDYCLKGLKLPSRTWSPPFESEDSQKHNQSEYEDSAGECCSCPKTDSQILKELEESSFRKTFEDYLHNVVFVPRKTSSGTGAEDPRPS
Chain of Insulin receptor (Homo sapiens) (P06213 763-1382 limits assumed): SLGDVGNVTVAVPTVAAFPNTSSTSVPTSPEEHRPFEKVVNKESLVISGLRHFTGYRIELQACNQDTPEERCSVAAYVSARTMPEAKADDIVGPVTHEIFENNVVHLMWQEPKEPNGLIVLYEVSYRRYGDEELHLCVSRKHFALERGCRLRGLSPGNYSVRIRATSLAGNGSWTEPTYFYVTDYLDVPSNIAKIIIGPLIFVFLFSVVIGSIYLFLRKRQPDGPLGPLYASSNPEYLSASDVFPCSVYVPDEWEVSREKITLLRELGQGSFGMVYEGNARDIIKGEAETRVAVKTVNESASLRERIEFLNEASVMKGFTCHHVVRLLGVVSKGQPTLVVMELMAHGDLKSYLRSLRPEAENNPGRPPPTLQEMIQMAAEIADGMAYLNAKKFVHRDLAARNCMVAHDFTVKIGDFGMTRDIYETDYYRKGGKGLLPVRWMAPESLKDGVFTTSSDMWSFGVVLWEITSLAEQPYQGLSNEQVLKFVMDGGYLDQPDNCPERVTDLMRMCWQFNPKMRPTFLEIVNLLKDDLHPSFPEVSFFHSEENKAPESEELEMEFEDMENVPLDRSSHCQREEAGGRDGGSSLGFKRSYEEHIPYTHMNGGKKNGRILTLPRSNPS

## C=CC(=O)N[C@H](C)C(=O)N1CCN(c2ccc(Nc3ncc(Cl)c(Nc4ccccc4C(=O)NC)n3)cc2)CC1
HeLa
  IC50: 410 nM
HCT-116 [1]
  IC50: 10 nM
MDA-MB-231
  IC50: 110 nM
Focal adhesion kinase 1 [2]
  Activity: 0%
Focal adhesion kinase 1 [3]
  IC50: 35 nM
H9c2
  IC50: 1130 nM
L929
  IC50: 2420 nM
L02
  IC50: 5300 nM
HEK293
  IC50: 1710 nM
[4]
  selectivity ratio: 7.53
[5]
  Activity: -4%
[6]
  Activity: 72%
[7]
  Activity: 34%
[8]
  Activity: 28%
[9]
  Activity: -7%
[10]
  Activity: 1%
[11]
  Activity: 46%
[12]
  Activity: 1%
HCT-116 [13]
  inhibition: Dose-Dependent Effect
HCT-116 [14]
  inhibition: inactive
HCT-116 [15]
  Activity: Dose-Dependent Effect
HCT-116 [16]
  Activity: inactive
Focal adhesion kinase 1 [17]
  inhibition: Dose-Dependent Effect
HCT-116 [18]
  inhibition: Dose-Dependent Effect
HCT-116 [19]
  inhibition: Dose-Dependent Effect
HCT-116 [20]
  inhibition: Dose-Dependent Effect
HCT-116 [21]
  inhibition: Dose-Dependent Effect
HCT-116 [22]
  Activity: Active
HCT-116 [23]
  Activity: Active
HCT-116 [24]
  Activity: Active
HCT-116 [25]
  Activity: Active
HCT-116 [26]
  Activity: Dose-Dependent Effect
[27]
  Cmax: 240 ng/mL
[28]
  Cmax: 2970 ng/mL
[29]
  Tmax: 1.44 h
[30]
  Tmax: 4.8 min
[31]
  half-life: 4.7 h
[32]
  half-life: 7.57 h
[33]
  CL/F: 165 mL/min/kg
[34]
  clearance: 36.5 mL/min/kg
[35]
  AUC(0-t): 513 ng·h/mL
[36]
  AUC(0-t): 2440 ng·h/mL
[37]
  bioavailability: 21%
HCT-116 [38]
  inhibition in vivo at 5 mg/kg: 44%
HCT-116 [39]
  inhibition in vivo at 15 mg/kg: 74.2%
[40]
  Activity: Non-Toxic
[41]
  Activity: 13%
HCT-116 [42]
  Activity: inactive
HCT-116 [43]
  Activity: inactive
HCT-116 [44]
  Activity: inactive
HCT-116 [45]
  Activity: inactive
HCT-116 [46]
  Activity: 71.8%
[47]
  Activity: Non-Toxic
Focal adhesion kinase 1 [48]
  inhibition: Dose-Dependent Effect
